Measurements from patent US8175815B2, “Method for assessing absorption properties of low solubility compounds” (F. Hoffmann-La Roche AG, priority 2006, dated 2012).

Columns and labels:
[1] = Excipient Effect: receiver UV AUC ratio in Double-Sink PAMPA with saturated donor (second embodiment); format: in vitro ADME; details: pH 5.0; receiver AUC with excipient / without excipient
Procedure: The compounds are presented as DMSO solutions with a concentration of about 10 mM. They are further diluted in a universal aqueous buffer and adjusted to pH 5.0, 6.2, and 7.4 with 0.5 M NaOH. The background amount of DMSO in the aqueous solution is 0.5% v/v. Most of the compounds are insoluble in water, where they form saturated solutions with precipitation present. The calculated concentration of the compounds in the buffer is about 50 μM, but because of precipitation, the actual concentrations in the aqueous media must be lower than that, and are unknown. Saturated (non-filtered) solutions are transferred to the donor compartment of the PAMPA sandwich pre-loaded with magnetic stirrers. The filter of the PAMPA filter plate (the acceptor compartment of the PAMPA sandwich) is covered with GIT-lipid and filled with acceptor sink buffer (ASB). […]
Thus, it's not surprising that the absorption behavior for this compound at pH 5.0 is governed by the permeability and that the presence of the excipient in the donor compartment decreases the permeability of Butacaine. The second embodiment of the method of the invention allows detection of this behavior without separate measurements of the solubility and permeability constants, but by simple comparison of the compound concentrations (UV absorbance) in the receiver compartments.

[2] = PAMPA, 30 min, 50 μM
[3] = PAMPA, pH 5
[4] = Double-Sink PAMPA permeability with and without excipients
[5] = equilibrium solubility-pH, direct-UV microtitre plate (μSOL Evolution) with and without excipients; details: for solubility at 18 h / pKa at 18 h: aqueous universal buffer (pION); for solubility at 18 h: 25 °C, kinetic from dmso stock; for pKa at 18 h: saturated drug suspension, pKa^APP ± SD

With CCCCN(CCCC)CCCOC(=O)c1ccc(N)cc1 [butacaine] the “excipient Effect” value [1] was under 1, the “PABL 0 mM NaTC” value [2] was 713 and the “PABL 3 mM NaTC” value [2] was 954. For the same molecule, the “PABL 15 mM NaTC” value [2] was 13, the “refined ABL thickness” value [2] was “exceeding 75 μm” and the “net flux effect due to 1% HP-β-CD” value [3] was “loses at all pH values”. The “MW*/MW” value ([4]; 3 mM NaTC (second value)) was 2, the “MW*/MW” value ([4]; 15 mM NaTC (third value)) was 30000 and the “MW*/MW” value ([4]; apparent/true molecular weight, 40 μm ABL assumed, 0 mM NaTC (first value)) was 4. For the same molecule, the solubility at 18 h ([5]; aqueous with cosolvent or surfactant or cyclodextrin) was 152 µg/mL, the solubility at 18 h ([5]; pH 5, aqueous buffer) was over 50 µM and the pKa at 18 h ([5]; apparent ionization constant in saturated solution, excipient none) was 8.8 ± 0.2. It also gave a pKa at 18 h ([5]; apparent ionization constant, excipient 3 mM NaTC) of 8.9 ± 0.2, a pKa at 18 h ([5]; apparent ionization constant, excipient 15 mM NaTC) of 8.5 ± 0.1 and a pKa at 18 h ([5]; apparent ionization constant, excipient 0.1M KCl) of 8.3 ± 0.3. The pKa at 18 h ([5]; apparent ionization constant, excipient 0.2M KCl) was 8.6 ± 0.1, the pKa at 18 h ([5]; apparent ionization constant, excipient 1% HP-b-CD) was 8.1 ± 0.1 and the pKa at 18 h ([5]; apparent ionization constant, excipient 1% NMP) was 8.5 ± 0.1. The pKa at 18 h ([5]; apparent ionization constant, excipient 1% PEG400) was 8.5 ± 0.1, the pKa at 18 h ([5]; apparent ionization constant, excipient 1% PG) was 8.2 ± 0.1 and the pKa at 18 h ([5]; apparent ionization constant, excipient 5% PEG400) was 8.5. For the same molecule, the pKa at 18 h ([5]; apparent ionization constant, excipient 5% PG) was 8.5 ± 0.2, the pKa at 18 h ([5]; apparent ionization constant, excipient […] HP-b-CD) was 8.5 ± 0.1 and the pKa at 18 h ([5]; apparent ionization constant, excipient […] NMP) was 8.8 ± 0.1. The pKa at 18 h ([5]; apparent ionization constant, excipient […] PEG400) was 8.5, the pKa at 18 h ([5]; apparent ionization constant, excipient […] PG) was 8.8 ± 0.1 and the “So ± SD” value ([5]; excipient 3 mM NaTC) was 3.1 ± 1.6 µg/mL. For the same molecule, the “So^APP ± SD” value ([5]; excipient 3 mM NaTC) was 50 ± 10 µg/mL, the “So ± SD” value ([5]; excipient 15 mM NaTC) was 2.3 ± 0.4 µg/mL and the “So^APP ± SD” value ([5]; excipient 15 mM NaTC) was 96 ± 4 µg/mL. The “So ± SD” value ([5]; excipient 0.1M KCl) was 1.3 ± 0.8 µg/mL, the “So^APP ± SD” value ([5]; excipient 0.1M KCl) was 83 ± 17 µg/mL and the “So ± SD” value ([5]; excipient 0.2M KCl) was 2.5 ± 0.2 µg/mL. For the same molecule, the “So^APP ± SD” value ([5]; excipient 0.2M KCl) was 78 ± 2 µg/mL, the “So ± SD” value ([5]; excipient 1% HP-b-CD) was 1.5 ± 0.4 µg/mL and the “So^APP ± SD” value ([5]; excipient 1% HP-b-CD) was 141 ± 7 µg/mL. For the same molecule, the “So ± SD” value ([5]; excipient 1% NMP) was 1.9 ± 0.5 µg/mL, the “So^APP ± SD” value ([5]; excipient 1% NMP) was 71 ± 5 µg/mL and the “So ± SD” value ([5]; excipient 1% PEG400) was 2.8 ± 0.4 µg/mL. For the same molecule, the “So^APP ± SD” value ([5]; excipient 1% PEG400) was 107 ± 2 µg/mL, the “So ± SD” value ([5]; excipient 1% PG) was 0.9 ± 0.2 µg/mL and the “So^APP ± SD” value ([5]; excipient 1% PG) was 69 ± 5 µg/mL. For the same molecule, the “So ± SD” value ([5]; excipient 5% PEG400) was 2.8 µg/mL, the “So^APP ± SD” value ([5]; excipient 5% PEG400) was 107 µg/mL and the “So ± SD” value ([5]; excipient 5% PG) was 1.5 ± 0.5 µg/mL. For the same molecule, the “So^APP ± SD” value ([5]; excipient 5% PG) was 66 ± 9 µg/mL, the “So ± SD” value ([5]; excipient […] HP-b-CD) was 2.0 ± 0.3 µg/mL and the “So^APP ± SD” value ([5]; excipient […] HP-b-CD) was 79 ± 4 µg/mL. The “So ± SD” value ([5]; excipient […] NMP) was 2.1 ± 0.5 µg/mL, the “So^APP ± SD” value ([5]; excipient […] NMP) was 47 ± 3 µg/mL and the “So ± SD” value ([5]; excipient […] PEG400) was 3.6 µg/mL. For the same molecule, the “So^APP ± SD” value ([5]; excipient […] PEG400) was 151 µg/mL, the “So ± SD” value ([5]; excipient […] PG) was 2.3 ± 0.5 µg/mL and the “So^APP ± SD” value ([5]; excipient […] PG) was 51 ± 4 µg/mL. For the same molecule, the “So ± SD” value ([5]; excipient none) was 1.9 ± 0.7 µg/mL, the “So^APP ± SD” value ([5]; excipient none) was 40 ± 6 µg/mL and the “So^APP ± SD” value ([5]; excipient none, listed as Butacaine) was 40 µg/mL. For the same molecule, the “salt limit (sdiff 3-4 approximation)” value ([5]; three orders of magnitude above excipient-free intrinsic solubility) was 39.8 mg/mL.
